Numbers after ± are expanded uncertainties.
Tests used:
[1] = xn = mol fraction of the nth substance listed; details: 101.3 kPa, Liquid
[2] = excess molar enthalpy (molar enthalpy of mixing); xn = mol fraction of the nth substance listed; details: 318.15 K, 101.3 kPa, Liquid

COC(=O)OC [dimethyl carbonate] + CCCCCCC
[1]
Details | mass density [kg/m3]
293.15 K, x1 = 0.05 | 694 ± 0.5
293.15 K, x1 = 0.094 | 703.5 ± 0.5
293.15 K, x1 = 0.2039 | 729.2 ± 0.5
293.15 K, x1 = 0.324 | 761.2 ± 0.5
293.15 K, x1 = 0.4062 | 785.9 ± 0.5
293.15 K, x1 = 0.5059 | 819.4 ± 0.5
293.15 K, x1 = 0.6099 | 859.2 ± 0.5
293.15 K, x1 = 0.6987 | 897.8 ± 0.5
293.15 K, x1 = 0.8086 | 952.7 ± 0.5
293.15 K, x1 = 0.9029 | 1006.6 ± 0.5
293.15 K, x1 = 0.9504 | 1036.6 ± 0.5
293.15 K, x1 = 1 | 1070 ± 0.6
298.15 K, x1 = 0.0594 | 691.6 ± 0.5
298.15 K, x1 = 0.1204 | 704.9 ± 0.5
298.15 K, x1 = 0.2132 | 726.7 ± 0.5
298.15 K, x1 = 0.3135 | 753.1 ± 0.5
298.15 K, x1 = 0.4018 | 779 ± 0.5
298.15 K, x1 = 0.4716 | 801.6 ± 0.5
298.15 K, x1 = 0.6051 | 851 ± 0.5
298.15 K, x1 = 0.6946 | 889.3 ± 0.5
298.15 K, x1 = 0.8031 | 943 ± 0.5
298.15 K, x1 = 0.902 | 999.5 ± 0.5
298.15 K, x1 = 0.9477 | 1028.2 ± 0.5
298.15 K, x1 = 1 | 1063.5 ± 0.6
303.15 K, x1 = 0.0586 | 687.2 ± 0.5
303.15 K, x1 = 0.0873 | 693.2 ± 0.5
303.15 K, x1 = 0.1996 | 718.7 ± 0.5
303.15 K, x1 = 0.299 | 744.2 ± 0.5
303.15 K, x1 = 0.4009 | 773.6 ± 0.5
303.15 K, x1 = 0.5081 | 808.9 ± 0.5
303.15 K, x1 = 0.6069 | 846.2 ± 0.5
303.15 K, x1 = 0.6979 | 885.2 ± 0.5
303.15 K, x1 = 0.8051 | 938 ± 0.5
303.15 K, x1 = 0.9069 | 995.8 ± 0.5
303.15 K, x1 = 0.9638 | 1031.6 ± 0.5
303.15 K, x1 = 1 | 1056.5 ± 0.6
313.15 K, x1 = 0.0649 | 679.3 ± 0.5
313.15 K, x1 = 0.1157 | 690.1 ± 0.5
313.15 K, x1 = 0.3432 | 746.6 ± 0.5
313.15 K, x1 = 0.4378 | 775.1 ± 0.5
313.15 K, x1 = 0.5458 | 812 ± 0.5
313.15 K, x1 = 0.6259 | 842.9 ± 0.5
313.15 K, x1 = 0.7191 | 883.2 ± 0.5
313.15 K, x1 = 0.8128 | 929.3 ± 0.5
313.15 K, x1 = 0.8798 | 966.5 ± 0.5
313.15 K, x1 = 0.9536 | 1012 ± 0.5
313.15 K, x1 = 0.9822 | 1031.1 ± 0.5
313.15 K, x1 = 1 | 1043.4 ± 0.5
318.15 K, x1 = 0.0693 | 675.1 ± 0.5
318.15 K, x1 = 0.1044 | 682.5 ± 0.5
318.15 K, x1 = 0.1947 | 702.6 ± 0.5
318.15 K, x1 = 0.2734 | 722 ± 0.5
318.15 K, x1 = 0.3512 | 743.2 ± 0.5
318.15 K, x1 = 0.419 | 763.3 ± 0.5
318.15 K, x1 = 0.4889 | 785.9 ± 0.5
318.15 K, x1 = 0.5518 | 808.1 ± 0.5
318.15 K, x1 = 0.61 | 830.3 ± 0.5
318.15 K, x1 = 0.6632 | 852 ± 0.5
318.15 K, x1 = 0.7142 | 874.6 ± 0.5
318.15 K, x1 = 0.762 | 897.1 ± 0.5
318.15 K, x1 = 0.8077 | 920.1 ± 0.5
318.15 K, x1 = 0.8514 | 943.8 ± 0.5
318.15 K, x1 = 0.8883 | 965 ± 0.5
318.15 K, x1 = 0.9289 | 989.7 ± 0.5
318.15 K, x1 = 0.964 | 1012.4 ± 0.5
318.15 K, x1 = 1 | 1036.9 ± 0.5

[2]
Details | excess molar enthalpy [kcal/mol]
x1 = 0.095 | 0.191 ± 0.0043
x1 = 0.1875 | 0.317 ± 0.00693
x1 = 0.2819 | 0.413 ± 0.00884
x1 = 0.3677 | 0.474 ± 0.01
x1 = 0.4442 | 0.503 ± 0.0105
x1 = 0.5016 | 0.512 ± 0.0108
x1 = 0.5205 | 0.512 ± 0.0108
x1 = 0.5497 | 0.511 ± 0.0108
x1 = 0.5542 | 0.51 ± 0.0108
x1 = 0.5906 | 0.505 ± 0.0105
x1 = 0.6326 | 0.493 ± 0.0103
x1 = 0.674 | 0.474 ± 0.01
x1 = 0.7188 | 0.443 ± 0.00932
x1 = 0.7582 | 0.405 ± 0.0086
x1 = 0.8053 | 0.357 ± 0.00765
x1 = 0.8488 | 0.299 ± 0.00645
x1 = 0.892 | 0.23 ± 0.00502
x1 = 0.929 | 0.157 ± 0.00359
x1 = 0.9663 | 0.0784 ± 0.00215
x1 = 1 | 0 ± 0.000478
